Measurements: patent publication US20100285095A1 (priority 2009, published 2010)
Values joined by “and” are separate entries in the source; they are usually repeats but may differ in a detail not shown here. Equal entries are not always repeated. Where two headings read alike, the source gives them in different places.

What was measured:
S. aureus MN 8 = assay type: cell-based, Staphylococcus aureus
physchem = conditions: 25 °C, water
[1] = % reduction per mM Ca added, Ca 4.0 mM added to shake flask
[2] = % reduction per mM Ca added, higher concentrations, Ca (mM) as in Table 2: chloride 75.6, stearate 98.8, lactate 53.1, citrate malate 22.6, glycerate 39.7, gluconate 38.4, α-D-heptagluconate 38.1
[3] = % reduction per mM Ca added, low concentrations, Ca (mM) as in Table 1: chloride 15.1, stearate 9.9, lactate 8.8, citrate malate 6.8, glycerate 4.0, gluconate 3.8, α-D-heptagluconate 3.8
[4] = reduction of TSST-1 vs. PBS and BHI control, low concentrations, Ca (mM) added to shake flask: calcium chloride 15.1, calcium stearate 9.9 (solid added directly into the media), calcium lactate 8.8, calcium citrate malate 6.8, calcium glycerate 4.0, calcium gluconate 3.8, calcium α-D-heptagluconate 3.8

| Compound | % TSST-1 Change (μg/ml/mM) vs. control (S. aureus MN 8; [1]) [%] | % TSST-1 Change (μg/ml/mM) vs. control (S. aureus MN 8; [2]) [%] | % TSST-1 Change (μg/ml/mM) vs. control (S. aureus MN 8; [3]) [%] | % TSST-1 Change (μg/mL) vs. control (S. aureus MN 8; [4]) [%] | further results |
| --- | --- | --- | --- | --- | --- |
| O=C(O)C(O)CO (racemic) [calcium glycerate] | 17.0 |  |  |  |  |
| O=C([O-])C(O)CO.O=C([O-])C(O)CO.[Ca+2] [calcium D-glycerate] | 22.9 |  |  |  |  |
| O=C([O-])[C@@H](O)CO.O=C([O-])[C@@H](O)CO.[Ca+2] [calcium L-glycerate] | 15.3 |  |  |  |  |
| [Ca+2].[Cl-].[Cl-] [calcium chloride, reference compound] |  | 1.1 | 2.5 | 37 |  |
| O=C(O)C(O)CO (stereo not drawn) [calcium glycerate] |  | 2.5 | 17.0 | 68 | solubility (physchem): 349 mM |
| CC(O)C(=O)[O-].CC(O)C(=O)[O-].[Ca+2] (stereo not drawn) [calcium lactate, reference compound] |  | 1.7 | 5.6 | 49 |  |
| O=C([O-])C(O)[C@H](O)[C@@H](O)[C@H](O)[C@H](O)CO.O=C([O-])C(O)[C@H](O)[C@@H](O)[C@H](O)[C@H](O)CO.[Ca+2] (stereo partly drawn) [calcium α-D-heptagluconate] |  |  |  |  | % TSST-1 Change (μg/mL) vs. control (S. aureus MN 8): 47%; % TSST-1 Change (μg/ml/mM) vs. control (S. aureus MN 8): 12.5% and 2.6% |
| calcium citrate malate [reference compound] |  | 3.9 | 13.1 | 89 |  |
| calcium gluconate |  | 2.5 | 21.3 | 81 |  |
| calcium stearate [reference compound] |  | 0.6 | 6.6 | 65 |  |
